This note sets out measurements from patent US8236841B2, “Fused heterocycle derivative” (Kyowa Hakko Kirin Co., Ltd., priority 2006, dated 2012).

One test deals with T1, CB2 receptor (Rattus norvegicus, UniProt Q9QZN9).
T1 construct: from tissue; host or cells: rat spleen membranes
T1 sequence (Q9QZN9 1-360): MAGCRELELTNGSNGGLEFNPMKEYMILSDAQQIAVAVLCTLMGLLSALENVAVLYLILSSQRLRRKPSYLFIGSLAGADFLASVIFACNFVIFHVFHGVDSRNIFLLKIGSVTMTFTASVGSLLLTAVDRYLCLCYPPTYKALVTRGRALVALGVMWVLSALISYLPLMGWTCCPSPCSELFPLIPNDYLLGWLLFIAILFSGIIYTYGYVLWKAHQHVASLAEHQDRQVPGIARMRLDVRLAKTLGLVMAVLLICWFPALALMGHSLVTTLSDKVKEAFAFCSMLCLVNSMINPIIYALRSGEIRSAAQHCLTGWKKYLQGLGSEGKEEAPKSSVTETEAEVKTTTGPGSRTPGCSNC
As to the kind of experiment: [3H]CP55940 binding assay, CB2 receptor (rat spleen membrane). The following applies: [3H]CP55940 0.5 nmol/L, 25° C. 1 hour. How it is done:
Cannabinoid CB1 and CB2 receptor-binding activities
The assay was performed according to a method of Hillard et al. (The Journal of Pharmacology and Experimental Therapeutics, vol. 289, p. 1427 (1999)). A rat forebrain membrane sample was prepared for use in the binding assay for CB1 receptor, and a rat spleen membrane sample was prepared for use in the binding assay for CB2 receptor. Each membrane sample (forebrain: final concentration of 0.5 mg·protein/mL, spleen: final concentration of 2 mg·protein/mL) together with each test compound and [^3H]CP55940 ((−)-cis-3-[2-hydroxy-[3,5-^3H]-4-(1,1-dimethylheptyl)-phenyl]-trans-4-(3-hydroxypropyl)cyclohexanol, manufactured by PerkinElmer, final concentration of 0.5 nmol/L), was incubated at 25° C. for 1 hour in the assay buffer solution (50 mmol/L Tris-HCl buffer solution (pH 7.4), 1 mmol/L EDTA and 3 mmol/L MgCl2) containing 0.1% bovine serum albumin. Then, the mixture was filtered through a glass filter GF/C (manufactured by Whatman) pretreated with 1% polyethyleneimine. After the glass filter was washed with the assay buffer solution containing 0.2% bovine serum albumin, the radioactivity on the glass filter was measured using a liquid scintillation counter (TRI-CARB 2700TR, manufactured by Packard). The nonspecific binding amount was defined as a binding amount in the presence of 10 μmol/L […] ((R)-(+)-[2,3-dihydro-5-methyl-3-(4-morpholinylmethyl)-pyrrolo[1,2,3-de]-1,4-benzoxazin-6-yl]-1-naphthalenylmethanone, manufactured by Tocris). The specific binding amount was presented as the difference between the total binding amount and the nonspecific binding amount. The 50% inhibitory concentration (IC50 value) of the test compound in the specific binding was determined. The Ki value of the test compound was calculated from this IC50 value and the Kd value for [^3H]CP55940 binding.

A further test has as its target T2, human CB2 receptor (Homo sapiens, UniProt P34972).
T2 construct: expressed in transfected cells
As to the kind of experiment: GTPγS binding assay via human CB2 receptor. The class given is biochemical. The following applies: membrane of human CB2 receptor stably expressing CHO-K1 cells; for EC50: read-out: EC50 value (agonist activity, [35S]GTPγS binding); for Emax: read-out: Emax value (maximum effect relative to CP55940 set to 100%). How it is done: GTPγS binding assay via human CB2 receptor
The assay was performed according to a method of Hillard et al. (The Journal of Pharmacology and Experimental Therapeutics, vol. 289, p. 1427 (1999)). For use as a membrane sample, a membrane fraction was prepared from human CB2 receptor stably expressing CHO-K1 cells (Nature, vol. 365, pp. 61-65 (1993)). The membrane sample (final concentration of 40 μg·protein/mL) together with each test compound and [^35S]GTPγS (manufactured by PerkinElmer, final concentration of 0.05 nmol/L), was incubated at 30° C. for 1 hour in the assay buffer solution (50 mmol/L Tris-HCl buffer solution (pH 7.4), 100 mmol/L NaCl, 1 mmol/L EDTA, 3 mmol/L MgCl2 and 0.1% bovine serum albumin) containing 20 μmol/L guanosine 5′-diphosphate (GDP). Then, the mixture was filtered through a glass filter GF/B (manufactured by Whatman). After the glass filter was washed with the assay buffer solution, the radioactivity on the glass filter was measured using a liquid scintillation counter (TRI-CARB 2700TR, manufactured by Packard). The nonspecific binding amount was defined as a binding amount in the presence of 10 μmol/L GTPγS. The specific binding amount was presented as the difference between the total binding amount and the nonspecific binding amount. The increase rate of the specific binding amount in the presence of the test compound relative to the specific binding amount in the absence of the test compound was defined as agonist activity of the test compound. The concentration which gives 50% of the maximum effect of the test compound (EC50 value) was calculated by nonlinear regression analysis of the concentration-response curve. The percentage of the maximum effect of the test compound (Emax value) was calculated based on the maximum effect of CP55940 (manufactured by Tocris) measured simultaneously set to 100%.

Test [1] concerns rats with chronic constriction nerve injury. The experiment in a line: Analgesic effect in rats with chronic constriction nerve injury (von Frey filament). The test is classed as in vivo, rat. The following applies: orally administered, dose of 50 mg/kg or less, one hour after administration, von Frey filaments. The text has this:
Analgesic Effect of Compounds in Rats with Chronic Constriction Nerve Injury
Rats with chronic constriction nerve injury were produced by partially modifying the method of Mosconi and Kruger et al. (Pain, vol. 64, pp. 37-57 (1996)).
Male Crl:CD(SD) rats were used for the experiments. Under pentobarbital anesthesia, the sciatic nerve of the left hind limb of the rat was exfoliated, and the exfoliated region was wrapped with a polyethylene tube (trade name: Intramedic, size: PE-60, manufactured by Becton Dickinson and Company) of 2 mm in length. On days 14 to 21 after the surgery, the rats were placed in an acrylic connected cage with a wire mesh floor (900 mm (length)×210 mm (depth)×140 mm (height)) consisting of 4 cages connected in a row and allowed to acclimate to the environment for at least 20 minutes, and then, the pain was evaluated.
The von Frey filament (trade name: touch test sensory evaluator, Model number: model 58011, manufactured by Muromachi Kikai) was used to evaluate pain, and the results were calculated as a pain threshold. That is, by using a von Frey filament of different stimulus intensity, stimulation was given to the plantar surface of the injured side of rats with chronic constriction nerve injury, and the stimulus intensity to cause paw withdrawal response was obtained. Then, the 50% pain threshold (Paw withdrawal threshold) (g) was calculated by the up down method of Dixon [Annual Review of Pharmacology and Toxicology, vol. 20, pp. 441-462 (1980)].
In the evaluation of the test compound, rats with 50% pain threshold of less than 4 g were used, and the test compound was dissolved in a 0.5% aqueous methyl cellulose solution and orally administered at a dose of 5 mL/kg. One hour after the administration, the pain threshold was measured using von Frey filaments.

Molecules are shown by their SMILES.

T2 sequence (P34972 whole entry): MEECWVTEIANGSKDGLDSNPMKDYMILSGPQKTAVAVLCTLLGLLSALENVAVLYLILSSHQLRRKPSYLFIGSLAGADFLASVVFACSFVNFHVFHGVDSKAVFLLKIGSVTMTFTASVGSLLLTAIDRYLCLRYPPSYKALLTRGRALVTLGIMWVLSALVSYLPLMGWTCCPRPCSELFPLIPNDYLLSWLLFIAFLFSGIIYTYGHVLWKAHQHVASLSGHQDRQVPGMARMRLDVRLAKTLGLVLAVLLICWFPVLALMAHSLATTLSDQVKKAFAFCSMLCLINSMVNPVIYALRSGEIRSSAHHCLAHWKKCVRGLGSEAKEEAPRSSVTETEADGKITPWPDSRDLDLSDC

As to `CCN(CC)C(=O)c1ccn2c(CC3CCCCC3)c(C(C)(C)C)nc2c1` [Compound 1, 2-tert-Butyl-3-cyclohexylmethyl-N,N-diethylimidazo[1,2-a]-pyridine-7-carboxamide], at CB2 receptor, the inhibition constant (Ki) was less than 1000 nM. Moreover, at human CB2 receptor, the half-maximal effective concentration (EC50) is less than 1000 nM and the maximum response (Emax) was greater than 30%.

Molecule `CCN(CC)C(=O)c1ccn2c(CC3CCOCC3)c(C(C)(C)C)nc2c1` [Compound 2, 2-tert-Butyl-N,N-diethyl-3-(tetrahydropyran-4-ylmethyl)-imidazo[1,2-a]pyridine-7-carboxamide] registered a Ki on CB2 receptor of less than 1000 nM. Besides, at human CB2 receptor, the EC50 was less than 1000 nM and the Emax was greater than 30%. Besides, the “50% pain threshold (Paw withdrawal threshold)” value (from here on “50% pain threshold”) in test [1] was “significantly increased the pain threshold”.

In the case of `CCN(CC)C(=S)c1ccn2c(CC3CCOCC3)c(C(C)(C)C)nc2c1` [Compound 8, 2-tert-Butyl-N,N-diethyl-3-(tetrahydropyran-4-ylmethyl)-imidazo[1,2-a]pyridine-7-carbothioamide], the inhibition constant (Ki) on CB2 receptor is less than 1000 nM. On human CB2 receptor, the EC50 was less than 1000 nM and the Emax is greater than 30%.

On CB2 receptor, `CCN(CC)C(=O)c1cc2nc(C(C)(C)C)c(CC3CCCCC3)n2cn1` [Compound 14, 2-tert-Butyl-3-cyclohexylmethyl-N,N-diethyl-imidazo[1,2-c]-pyrimidine-7-carboxamide] returned an inhibition constant (Ki) of less than 1000 nM. In addition, on human CB2 receptor, the EC50 is less than 1000 nM and the maximal effect (Emax) is greater than 30%.

Take `CCN(CC)C(=O)c1cc2nc(C(C)(C)C)c(CC3CCOCC3)n2cn1` [Compound 15, 2-tert-Butyl-N,N-diethyl-3-(tetrahydropyran-4-ylmethyl)-imidazo[1,2-c]pyrimidine-7-carboxamide]: the Ki on CB2 receptor was less than 1000 nM. Besides, at human CB2 receptor, the concentration giving a half-maximal response (EC50) was less than 1000 nM and the maximal effect (Emax) was greater than 30%. For the same molecule, in test [1], the “50% pain threshold” value is given as “significantly increased the pain threshold”.

On CB2 receptor, `CCN(CC)C(=S)c1cc2nc(C(C)(C)C)c(CC3CCOCC3)n2cn1` [Compound 16, 2-tert-Butyl-N,N-diethyl-3-(tetrahydropyran-4-ylmethyl)-imidazo[1,2-c]pyrimidine-7-carbothioamide] registered an inhibition constant Ki of less than 1000 nM. At human CB2 receptor, the half-maximal effective concentration (EC50) is less than 1000 nM and the Emax is greater than 30%.

For `CC(C)N(C)C(=O)c1ccn2c(CC3CCOCC3)c(C(C)(C)C)nc2c1` [Compound 17, 2-tert-Butyl-N-isopropyl-N-methyl-3-(tetrahydropyran-4-ylmethyl)-imidazo[1,2-a]pyridine-7-carboxamide], the Ki on CB2 receptor was less than 1000 nM. On human CB2 receptor, the EC50 is less than 1000 nM and the maximum response (Emax) is greater than 30%. Moreover, in test [1], the “50% pain threshold” value was “significantly increased the pain threshold”.

`CC(C)CN(C)C(=O)c1ccn2c(CC3CCOCC3)c(C(C)(C)C)nc2c1` [Compound 18, 2-tert-Butyl-N-isobutyl-N-methyl-3-(tetrahydropyran-4-ylmethyl)imidazo[1,2-a]pyridine-7-carboxamide] displayed a Ki at CB2 receptor of less than 1000 nM. In addition, on human CB2 receptor, the 50% effective concentration (EC50) was less than 1000 nM and the maximum response (Emax) is greater than 30%. In addition, the “50% pain threshold” value in test [1] was “significantly increased the pain threshold”.

As to `CCN(CC)C(=O)c1ccn2c(CC3CCCCO3)c(C(C)(C)C)nc2c1` (centres unmarked) [Compound 27, 2-tert-Butyl-N,N-diethyl-3-(tetrahydropyran-2-ylmethyl)-imidazo[1,2-a]pyridine-7-carboxamide], the Ki on CB2 receptor was less than 1000 nM.
